By viability is commonly meant a read-out of living cells in per cent, often relative to untreated cells.

The results in this text go back to US20150315179A1, “COMPOUNDS AND METHODS OF TREATING NEUROLOGICAL DISORDERS” (Torrey Pines Institute For Molecular Studies, priority 2014, published 2015).

Data set [1] deals with NT2 cells stably expressing APP751. Description: SAHA treatment, APP fragments in NT2 cells. It is filed as cell-based, human. To be noted: SAHA application. The source says: (§1) We utilized a commercially available AlphaLISA detection kit to develop an HTS assay for identification of compounds that increase sAPPα production in CHO cells stably expressing APP751 (7WD10 cells) (FIG. 2.1B). There are several cell lines that have been used extensively in Alzheimer's disease research. For example, NT2 cells are highly used in AD basic and drug discovery research because they are derived from a human embryonal carcinoma cell line and they can be differentiated into post-mitotic neuron-like cells that develop functional dendrites and axons resembling primary neurons of the human brain [39]. NT2 cells also synthesize amyloid precursor protein important in Alzheimer's disease. However, the rate of growth of NT2 cells is much slower than rate of growth of 7WD10s cells, which makes them less HTS-amenable. We have analyzed both 7WD10 and NT2 cells for expression of the hallmark proteins of Alzheimer's disease: soluble APPα, soluble APPβ, Aβ, and membrane-bound full length APP (APP-FL). […] Since it was shown that broad HDAC inhibition results in a decrease of Aβ and an increase of soluble APPα [41] we tested both cell lines for the effect of application of SAHA (suberoylanilide hydroxamic acid or vorinostat), a pan-HDAC inhibitor [42].

The subject of data set [2] is 7WD10 (CHO) cells stably expressing APP751. Put plainly: SAHA treatment, APP fragments in 7WD10 (CHO) cells. It is filed as cell-based. To be noted: SAHA application. The method, then:
(§2) Western blot sAPPα release assay. 7WD10 cells were grown in 6-well plates and treated with test compounds and SAHA (vorinostat) at several concentrations in duplicate wells. After 24 h of drug exposure, the conditioned media (CM) was collected, centrifuged to remove cell debris and subjected to SDS-PAGE electrophoresis. sAPPα (6E10, mouse IgG from IBL America ltd) was detected using indicated antibody. To detect APP-FL holoprotein and C-terminal fragments (CTFs, CT15 antibody), the cells were lysed using lysis buffer (1% NP40) with complete protease inhibitor mix (Sigma) supplemented with sodium vanadate and microcystine. Samples were subjected to SDS-PAGE, transferred and immunoblotted with indicated antibodies and detected by enhanced chemiluminescence method. Quantification of Western blot signals was done using ImageJ software.
as §1

The test system of data set [3] is sAPPα in supernatants of 7WD10 cells. Put plainly: Western blot sAPPα release assay, 7WD10 cells. In kind it is cell-based. To be noted: as low as 10 nM, 7WD10 supernatants. The method, then: (2). To ascertain that hits identified as a result of AlphaLISA assay are not due to artifacts of the detection system, the sAPPα levels were measured by Western blots as a secondary assay downstream of primary HTS to confirm hits or discard artifacts of the AlphaLISA assay. The assay was performed using a range of concentrations of hit compounds (10-5,000 nM). A hit compound named thiazole piperazine #244 (THPI-244) and THPI-326 induced dose-dependent increase of sAPPα in supernatants of 7WD10 cells (FIG. 1.3). […] Since compound THPI-244 increased sAPPα levels more than THPI-326, we focused on THPI-244 for further validation.
as §2
Background: Immunoblotting shows a protein as a band on a membrane.

The test system of data set [4] is sAPPα release from 7WD10 cells. Put plainly: AlphaLISA sAPPα release assay (pilot screen). In kind it is cell-based. The method, then: Pilot screen of AlphaLISA sAPPα release assay. 8 μL of assay media (DMEM supplemented with 10% FBS and 1× Penicillin/Streptomycin) containing 20,000 cells were added to all wells of the assay plate, except column 1 where only media was added. Plates were incubated for 4 h at 37° C., 5% CO2, 95% RH after which 80 nL of test compounds in DMSO or DMSO alone were added to respective wells using a pin tool device (VP Scientific, San Diego). After 24 h of incubation at 37° C., 5% CO2, 95% RH, sAPPα AlphaLISA beads were added in 10 μL of buffer, equilibrated for 1 h, and AlphaLISA signal was measured using a Biotek H4 Synergy microplate reader (Biotek Inc). Three parameters were calculated on a per-plate basis: (a) the signal-to-background ratio (S/B); (b) the coefficient for variation [CV; CV=(standard deviation/mean)×100)] for all compound test wells; and (c) the Z′-factor [31]. Nominally active compounds from the pilot screen were determined using mean plus 3 times the standard deviation (Mean+3SD) was used as the cut-off.

A further data set has as its system TrkA. Description: TrkA increase by THPI-244 analogs. In kind it is cell-based. An excerpt: (§3) The following table illustrates Chemical structures and properties of THPI-244 analogs selected out of 37 analogs, and each have significant sAPPα increasing activity. Toxicity is the minimum dose for toxicity.
In the next data set the test system is sAPPα. Put plainly: sAPPα increasing activity of THPI-244 analogs. It is filed as cell-based.
Excerpt: as §3

The nature of another data set: BBB of THPI-244 analogs.
Excerpt: as §3

The test system of data set [5] is sAPPα in conditioned medium of 7WD10 cells. Put plainly: sAPPα release ELISA, 7WD10 cells. In kind it is cell-based. To be noted: 24 h. The method, then: Starting from p-methylbenzhydrylamine hydrochloride (MBHA.HCl) resin; we developed different approaches toward the diversity oriented solid-phase parallel synthesis of different aminothiazole compounds 1-6 (Scheme 1) (Micheals, H A et al., 2014, ACS Comb. Sci. 16, 1-4; Nefzi, A et al., 2010, J. Org. Chem. 75, 7939-7941). 575 thiazole compounds were synthesized and were tested for sAPPα increasing activity using CHO cells stably expressing APP751 wt. For initial screenings we used a cell-based human sAPPα ELISA kit (cat#27734, IBL Co., ltd, Japan) following instructions from the manufacturer. The method involves sandwich ELISA and use of two specific antibodies and tetra methyl benzidine as a coloring agent. […]
sAPPα and Aβ40 release ELISA assay. […] The principle of the method is based on the use of tetra methyl benzidine (TMB) as a chromogen and the strength of the generated color is proportional to the quantities of human sAPPα. […] Plates were incubated with chromogen solution for 30 minutes, and read at 450 nm after adding stop solution. Levels of Aβ40 in the CM treated with different concentrations of compound 1 as detailed above were measured by sandwich ELISA exactly as described previously. Aβ40 was captured with Ab9 antibody (epitope, 1-16 of Aβ40) and detected with horseradish peroxidase-conjugated Ab13.1.1 antibody (epitope, 35-40 of Aβ40).
(In general: In an ELISA, binding on a coated surface is turned into a signal by an enzyme label.)

The next data set relates to 7WD10 cells. Put plainly: CellTiter-Glo cell viability assay. To be noted: for viability: 100 μM. In kind it is cell-based. The method, then:
Cell viability assay. 7WD10 cells were plated in 384-well plates in 8 μL of media. Plates were incubated for 4 and 24 h at 37° C., 5% CO2 and 95% RH. After incubation, 8 μL of CellTiter-Glo® (Promega cat#: G7570) were added to each well, and incubated for 15 min at room temperature. Luminescence was recorded using a Biotek Synergy H4 microplate reader. Viability is expressed as a % relative to wells containing media only (0%) and wells containing cells (100%).
In the absence of known pharmacological agents capable of inducing an increase of sAPPα release, we tested a small molecule (FIG. 2.4A insert, compound 1 in [2]) shown to decrease Aβ release. It was shown that decrease of Aβ release could be accompanied by the increase of soluble APPα, which has a neuroprotective effect. Compound 1 was tested using 20,000 cells/well in the range of 1.2-100 μM using 3-fold serial dilutions and 24 h incubation as an assay endpoint. Increase of sAPPα release was observed only in wells where 100 μM of compound 1 was added either with or without FBS (FIG. 2.4A). Viability of cells was also tested in the presence of 1.2-100 μM of compound 1 to ascertain that the increase of sAPPα release is not due to excessive cell death. Consistent with the above described results, cells were less viable in the absence of FBS. In the presence of 1.2-33 μM of compound 1, cells were approximately 10% less viable than untreated control either with or without FBS (FIG. 2.4B).
(In general: In ATP-based viability assays light output follows the ATP content of the culture.)

Data set [6] has as its system Aβ40 in conditioned medium of 7WD10 cells. Put plainly: Aβ40 release ELISA, 7WD10 cells. It is filed as cell-based. The source says: sAPPα and Aβ40 release ELISA assay. 7WD10 cells stably expressing APP751 were used for the detection of sAPPα in the conditioned medium (CM). For the detection of sAPPα, human sAPPα assay kit from IBL (Immuno-Biological Laboratories Co., Ltd, cat #27734) was used. The kit is a solid phase sandwich ELISA using two different antibodies. The principle of the method is based on the use of tetra methyl benzidine (TMB) as a chromogen and the strength of the generated color is proportional to the quantities of human sAPPα. Briefly, cells were grown in 6-well plates and treated with compound 1 at 0, 50, 75, 100, 125 and 150 μM final concentrations. After 24 hours of compound exposure, the CM was collected, centrifuged to remove cell debris and used in the assay. 100 μL of EIA buffer was used as blank. The 100 μL of test samples were put in to each well and incubated the precoated plate overnight at […] covered with plate lid. After overnight incubation, wells were vigorously washed with wash buffer several times. Then 100 μL of labeled antibody was added, incubated at 40 C for 30 minutes and washed again several times. Plates were incubated with chromogen solution for 30 minutes, and read at 450 nm after adding stop solution. Levels of Aβ40 in the CM treated with different concentrations of compound 1 as detailed above were measured by sandwich ELISA exactly as described previously. Aβ40 was captured with Ab9 antibody (epitope, 1-16 of Aβ40) and detected with horseradish peroxidase-conjugated Ab13.1.1 antibody (epitope, 35-40 of Aβ40).

As for `O=C(CCCCCCC(=O)Nc1ccccc1)NO` [SAHA, suberoylanilide hydroxamic acid], in data set [1], the Aβ entry is “decrease”, the “levels of APP-FL” value was “not affected” and the sAPPβ result is listed as “decrease”. In addition, in [2], the Aβ entry is on record as “decrease”, the “levels of APP-FL” value is “not affected” and the sAPPβ entry is “decrease”.
Regarding `CCC(C)C(=O)N1CCN(Cc2csc(NC[C@H](Cc3ccc(O)cc3)NC(=O)Cc3ccccc3)n2)CC1` (stereo partly drawn) [THPI-326], the “increase of sAPPα over untreated control cells” value in data set [3] is on record as 2 fold. In addition, the “increase of Alpha signal (sAPPα release)” value in data set [4] (5 μM, 7WD10 cells, 24 h) is roughly 2 fold.
As to `Cc1cnc(C(=O)N[C@H](CNc2nc(CN3CCNCC3)cs2)c2ccccc2)cn1` [TPI-2336-55], the “% TrkA ↑” value in the data set on TrkA is recorded as 69%. Besides, the “% sAPPα ↑” value in the data set with sAPPα came out at 217%. The “% BBB” value in “BBB of THPI-244 analogs” came to 1.0%.
Regarding `c1ccc(CCNc2nc(CN3CCOCC3)cs2)cc1` [TPI-2336-99], the “% TrkA ↑” value in the data set on TrkA is on record as 51%. The “% sAPPα ↑” value in the data set with sAPPα is 160%. In addition, in the data set “BBB of THPI-244 analogs”, the “% BBB” value is 5.6%.
`c1ccc(CCNc2nc(CN3CCCCC3)cs2)cc1` [TPI-2336-100]: in the data set on TrkA, the “% TrkA ↑” value worked out at 54%. The “% sAPPα ↑” value with sAPPα was 166%. The “% BBB” value in the data set “BBB of THPI-244 analogs” stood at 5.9%.
Regarding `O=C(NCCSCc1cccc(Cl)c1)c1c(Cl)cccc1Cl` [compound 1, 2,6-dichloro-N-{2-[(3-chlorobenzyl)thio]ethyl}benzamide], the “increase of sAPPα over untreated control cells” value in data set [5] (100 μM) came to 2 fold. For the same compound, the “maximal effect, increase of sAPPα” value in data set [5] (150 μM) is recorded as 3 fold. Further, the viability in the data set with 7WD10 cells (with FBS) is roughly 70%; with 7WD10 cells (without FBS) it was roughly 40%. Moreover, in the data set on 7WD10 cells (1.2-33 μM, with or without FBS), the “loss of viability versus untreated control” value is listed as “approximately 10%”. Further, the “increase of AlphaLISA signal” value in data set [4] (100 μM compound 1, assay development and pilot screen) is 2 fold. Also, the “concentration at which increase of sAPPα release was observed” value in data set [4] (tested 1.2-100 μM, 20,000 cells/well, 24 h, with or without FBS) was 100 µM. The “decrease of Aβ40 supernatant levels” value worked out at 24% in data set [6] (100 μM), 43% in data set [6] (125 μM) and 49% in [6] (150 μM).
